From ChEMBL document CHEMBL5230155, “Recent contributions of quinolines to antimalarial and anticancer drug discovery research” (Eur J Med Chem, 2021) come the findings set out here.

Data set [1] has as its system PC-3. Kind of data set: Antiproliferative activity against human PC-3 cells. Type of data set: functional, cell-based.
Data set [2] deals with Alkaline phosphatase, germ cell type (Homo sapiens, UniProt P10696). Kind of data set: Inhibition of human germ cell alkaline phosphatase.
Data set [3] has as its target Epidermal growth factor receptor (Homo sapiens, UniProt P00533).
Data set [4] has as its system Plasmodium berghei. Put plainly: Antimalarial activity against Plasmodium berghei ANKA infected in mouse assessed increase in survival time at 20 mg/kg/day, ip for 4 days. Type of data set: functional. Conditions: time 4 day.
Data set [5] has as its system Plasmodium berghei. Put plainly: Antiplasmodial activity against Plasmodium berghei ANKA infected in mouse assessed as reduction in parasitaemia at 20 mg/kg/day, ip administered for 4 days. Type of data set: functional. Further details: scale not given: the % may be the effect or the level left. The following applies: time 4 day.
Data set [6] has as its system NCI-H460. Put plainly: Antiproliferative activity against human NCI-H460 cells. Type of data set: functional, cell-based.
Data set [7] has as its system PANC-1. Kind of data set: Antiproliferative activity against human PANC-1 cells. Type of data set: functional, cell-based.
For data set [8], the system named is MIA PaCa-2. Put plainly: Antiproliferative activity against human MIA PaCa-2 cells. Type of data set: functional, cell-based.
The subject of data set [9] is HT-29. Put plainly: Antiproliferative activity against human HT-29 cells. Type of data set: functional, cell-based.
For data set [10], the system named is A-375. Kind of data set: Antiproliferative activity against human A-375 cells. Type of data set: functional, cell-based.
The test system of data set [11] is Plasmodium falciparum. Put plainly: Antimalarial activity against CQ-sensitive Plasmodium falciparum 3D7. Type of data set: functional, organism-based.
In data set [12] the test system is Plasmodium berghei. Kind of data set: Antimalarial activity against liver stage Plasmodium berghei. Type of data set: functional, organism-based.
Data set [13] deals with Hep 3B2. Put plainly: Cytotoxicity against human Hep3B cells assessed as relative value at 15 uM after 48 hrs by MTS method. Type of data set: functional. On the technique in general: Tetrazolium dyes change colour on reduction, which living cells bring about.
Data set [14] has as its system MCF7. Put plainly: Antiproliferative activity against human MCF7 cells. The following applies: Homo sapiens, MCF7. Type of data set: functional, cell-based.
Data set [15] concerns G-361. Put plainly: Antiproliferative activity against human G-361 cells. Type of data set: functional, cell-based. Conditions: read-out: IC50.
Data set [16] in a line: Cytotoxicity against african green monkey Vero cells. Type of data set: toxicity, cell-based. Conditions: African green monkey (Chlorocebus sabaeus).
Data set [17] is described as follows: Selectivity index, ratio of IC50 for African green monkey Vero cells to IC50 for CQ sensitive Plasmodium falciparum 3D7. Type of data set: toxicity. The following applies: read-out: Ratio IC50.
The subject of data set [18] is Plasmodium falciparum. Kind of data set: Antimalarial activity against CQ-resistant Plasmodium falciparum RKL-9. Type of data set: functional, organism-based.
Data set [19] deals with Hemozoin. Put plainly: Inhibition of beta-hematin formation relative to control. The following applies: concentration not given here.

What is called pIC50 is the negative decadic logarithm of the IC50, by convention in mol/L. The term inhibition denotes the relative decrease from the control value, in per cent.

pIC50: −log10 of the molar value.

Epidermal growth factor receptor, sequence (P00533 whole entry): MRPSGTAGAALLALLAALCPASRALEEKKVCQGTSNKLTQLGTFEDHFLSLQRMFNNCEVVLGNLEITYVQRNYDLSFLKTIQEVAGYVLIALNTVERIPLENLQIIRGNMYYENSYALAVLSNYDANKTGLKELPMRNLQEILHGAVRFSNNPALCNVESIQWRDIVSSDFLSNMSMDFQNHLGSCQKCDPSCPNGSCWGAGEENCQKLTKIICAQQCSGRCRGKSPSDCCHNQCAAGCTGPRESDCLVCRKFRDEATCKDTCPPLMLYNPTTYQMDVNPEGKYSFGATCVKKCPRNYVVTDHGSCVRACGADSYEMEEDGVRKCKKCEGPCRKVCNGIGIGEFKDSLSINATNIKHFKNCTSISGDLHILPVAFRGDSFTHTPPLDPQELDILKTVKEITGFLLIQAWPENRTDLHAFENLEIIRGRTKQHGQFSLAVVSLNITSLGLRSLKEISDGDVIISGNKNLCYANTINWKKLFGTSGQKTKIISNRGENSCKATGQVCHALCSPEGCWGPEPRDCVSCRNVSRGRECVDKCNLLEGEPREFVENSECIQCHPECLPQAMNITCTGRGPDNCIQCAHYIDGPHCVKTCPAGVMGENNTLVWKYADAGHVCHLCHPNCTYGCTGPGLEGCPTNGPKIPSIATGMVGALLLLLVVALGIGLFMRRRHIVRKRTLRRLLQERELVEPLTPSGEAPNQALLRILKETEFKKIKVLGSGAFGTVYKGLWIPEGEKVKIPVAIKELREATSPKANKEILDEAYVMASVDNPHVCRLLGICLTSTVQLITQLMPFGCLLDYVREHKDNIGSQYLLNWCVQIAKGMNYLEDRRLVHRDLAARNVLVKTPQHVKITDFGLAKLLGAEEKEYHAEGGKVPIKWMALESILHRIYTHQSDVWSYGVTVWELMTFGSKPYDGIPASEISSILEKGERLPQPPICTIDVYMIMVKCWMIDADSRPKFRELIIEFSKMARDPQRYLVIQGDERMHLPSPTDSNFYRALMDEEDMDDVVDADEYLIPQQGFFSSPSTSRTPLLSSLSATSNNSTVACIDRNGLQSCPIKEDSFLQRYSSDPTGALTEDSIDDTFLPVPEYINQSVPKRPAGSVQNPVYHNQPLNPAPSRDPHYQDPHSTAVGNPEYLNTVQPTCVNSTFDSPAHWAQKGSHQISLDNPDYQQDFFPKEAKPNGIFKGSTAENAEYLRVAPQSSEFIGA
Alkaline phosphatase, germ cell type, sequence (P10696 whole entry): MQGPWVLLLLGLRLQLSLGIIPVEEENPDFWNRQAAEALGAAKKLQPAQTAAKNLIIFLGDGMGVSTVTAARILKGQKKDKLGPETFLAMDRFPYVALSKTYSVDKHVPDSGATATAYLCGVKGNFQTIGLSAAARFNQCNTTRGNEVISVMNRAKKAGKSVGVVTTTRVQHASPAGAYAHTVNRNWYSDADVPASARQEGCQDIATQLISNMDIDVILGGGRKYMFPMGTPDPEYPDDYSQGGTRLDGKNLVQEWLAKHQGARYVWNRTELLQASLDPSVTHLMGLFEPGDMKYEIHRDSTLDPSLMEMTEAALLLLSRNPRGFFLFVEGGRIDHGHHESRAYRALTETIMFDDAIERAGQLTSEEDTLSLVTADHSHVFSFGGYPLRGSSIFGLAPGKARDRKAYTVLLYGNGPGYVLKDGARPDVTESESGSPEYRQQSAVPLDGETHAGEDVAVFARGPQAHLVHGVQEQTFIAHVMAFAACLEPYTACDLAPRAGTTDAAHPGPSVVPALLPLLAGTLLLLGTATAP

Regarding `Cc1cc2c(C(=O)Nc3nc4ccccc4s3)cc(O)nc2cc1Cl`, the pIC50 is 7.74 in data set [1] and above 7.12 in data set [2].
In turn, `COc1ccc2nc(Cl)c(C3CC(c4ccc(C)cc4)=NN3c3nc(-c4ccc(F)cc4)cs3)cc2c1` (stereo not drawn) gave a pIC50 in data set [3] of 7.50.
In turn, `COc1cc(/C=C/C(=O)c2cccc(Nc3ccnc4cc(Cl)ccc34)c2)cc(OC)c1OC` displayed a Time in data set [4] of 24.6 days. Further, in [5], the Activity was 1.4%.
With `COc1nc2ccccc2cc1/C=C1/C=C(c2ccccc2)NC1=O`, the pIC50 in data set [6], in data set [7], in data set [8], in data set [9] and in [10] was 5.72 in each case.
Consider `COc1cc(C)c2c(Oc3cccc(C(F)(F)F)c3)c(OC)cc(NC(C)CCON)c2n1` (stereo not drawn), for which the pIC50 is 6.42 in data set [11] and 5.27 in [12].
In data set [3], `COc1ccc2nc(Cl)c(C3CC(c4ccc(C)cc4)=NN3c3nc(C)c(C(=O)Nc4ccccc4)s3)cc2c1` (stereo not drawn) had a negative logarithm of the IC50 (pIC50) of 7.37.
On to `Cc1ccc2cccc(OS(=O)(=O)c3ccc(CBr)cc3)c2n1`, for which the “fold change (FC)” value in [13] came out at 0.25.
Turning to `O=C(Nc1nc2ccccc2s1)c1cc(O)nc2ccc(O)cc12`, the negative logarithm of the IC50 (pIC50) in data set [2] was above 7.12.
The same measure, in the same setting: as for `COc1cc2c(C(=O)Nc3nc4ccccc4s3)cc(O)nc2cc1Cl`, the figure is above 7.12.
Turning to `COc1ccc2ccc(F)c(CC(=O)N/N=C/c3cc(OC)c(OC)c(OC)c3)c2n1`, the negative logarithm of the IC50 (pIC50) in data set [14] and in data set [15] was 5.68 each time.
`COc1cc(NC(C)CCCN)c2ncccc2c1` (stereo not drawn) [PRIMAQUINE]: the pIC50 in data set [12] was 5.96.
With `O=S(=O)(Oc1cccc2cccnc12)c1ccc(CBr)cc1`, the “fold change (FC)” value in [13] amounted to 0.25.
For `COc1nc2ccc(C)cc2cc1Cc1cc(-c2ccccc2)n[nH]c1=O`, the negative-log IC50 (pIC50) in [6], in data set [7], in [9] and in [10] was 5.66 in each case.
For the compound `O=C(Cn1cc(COc2ccc(Br)cc2)nn1)NCCCNc1ccnc2cc(Cl)ccc12`, the values for the negative logarithm of the IC50 (pIC50) in [11], in data set [16] and in [18] were 7.41, below 5.30 and 7.80, respectively. Besides, the selectivity ratio in data set [17] is 714.
For the compound `Cc1cc2nc(O)cc(C(=O)Nc3nc4ccccc4s3)c2cc1C`, the negative-log IC50 (pIC50) in data set [1] was 7.32; in data set [2], above 7.12.
For the compound `O=S(=O)(Oc1c(Br)cc(Br)c2cccnc12)c1cccc2cccnc12`, the “fold change (FC)” value in data set [13] came to 0.38.
On to `COc1ccc(/C=C/C(=O)c2cccc(Nc3ccnc4cc(Cl)ccc34)c2)cc1OC`, for which the Time in [4] was 22.44 days. Besides, in data set [5], the Activity worked out at 1.4%.
As for `COc1cc(C)c2c(Oc3ccc(F)c(F)c3)c(OC)cc(NC(C)CCON=C(C)C)c2n1` (stereo not drawn), the negative logarithm of the IC50 (pIC50) is 6.42 in data set [11] and 5.27 in data set [12].
With `COc1ccc(C(=O)/C=C/c2cc3ccccc3nc2Cl)cc1OC`, the inhibition in [19] is 61.3%.
The same measure, in the same setting: as for `COc1ccc2nc(Cl)c(/C=C/C(=O)c3ccc(OC)c(OC)c3OC)cc2c1`, the figure is 61.3%.
The compound `COc1ccc2nc(Cl)c(/C=C/C(=O)c3ccc(C)cc3)cc2c1` had a negative-log IC50 (pIC50) in [3] of 7.43.
For `O=C(Cn1cc(COc2ccc(Cl)cc2)nn1)NCCNc1ccnc2cc(Cl)ccc12`, the results for the pIC50 in data set [11], in data set [16] and in data set [18] were 7.41, below 5.30 and 7.12, respectively. Further, the selectivity ratio in [17] worked out at 714.
On to `CSc1nc2ccccc2cc1/C=C1/C=C(c2ccccc2)NC1=O`, for which the pIC50 in data set [6], in data set [7], in [8], in [9] and in data set [10] was 5.72 each time.
On to `COc1ccc2ccc(F)c(CC(=O)N/N=C/c3ccc(C(F)(F)F)cc3)c2n1`, for which the pIC50 in data set [14] and in data set [15] was 5.68 throughout.
`O=C(Cn1cc(COc2ccc(Br)cc2)nn1)NCCNc1ccnc2cc(Cl)ccc12`: the results for the pIC50 in [11], in [16] and in data set [18] were 7.41, below 5.30 and 8.53, respectively. Moreover, the selectivity ratio in data set [17] amounted to 714.
